Test results published in article PMC6409773 (Marine Drugs, 2019).
One block for each compound: values may come before it.

Key:
NK1 (h) Tachykinin [1] = biological target: T1, NK1 (h) Tachykinin (Homo sapiens, UniProt P25103); assay: Cell-based functional GPCR assay, agonist effect; settings: read-out: % of Control Agonist Response
Procedure: (§1) A functional GPCR cell-based assay presents readouts of multiple second messengers including cAMP for Gi and Gs-coupled receptors and IP1 and IP3/calcium flux for Gq-coupled receptors. Functional assays were conducted at Eurofins Cerep (Le Bois I’Eveque, France) using transected cells expressing human cloned receptors. The in-house functional assay protocol (https://www.eurofinsdiscoveryservices.com/cms/cms-content/services/in-vitro-assays/gpcrs/functional/) and experimental conditions are shown in Supplementary Table S1. Stable cell lines expressing recombinant GPCRs were used in this study.
(§2) The method used to quantify the intracellular [Ca^2+] level varied slightly according to receptor type. However, in general, cells expressing different receptors (Table 1) were transfected with an expression vector encoding a receptor polypeptide and were allowed to grow for a time period sufficient for that receptor to be expressed. A fluorescent probe (Fluo8 Direct, Invitrogen, Carlsbad, CA, USA) mixed with probencid in HBSS buffer (Invitrogen, Carlsbad, CA, USA) supplemented with […] (Invitrogen) (pH 7.4) was then added to each well and allowed to equilibrate with the cells for 60 min at 37 °C. Thereafter, assay plates were positioned in a microplate reader (CellLux, PerkinElmer, Waltham, MA, USA) and eckol (25 and 50 μM), reference agonist, or HBSS buffer (basal control) were added, and measurements of the change in fluorescence intensity, which varies proportionally to the free cytosolic Ca^2+ ion concentration, were taken. Standard reference control (agonist and antagonist) values are presented in Table 1, and controls were included in each experiment at several concentrations to generate a concentration-response curve from which to calculate EC50 values.
(§3) Cellular agonist effect was calculated as the percentage of the control response to a known reference agonist for each target and the cellular antagonist effect was calculated as the percentage inhibition of the control reference agonist response for each target. Results are expressed as a percentage of control agonist response or inverse agonist response (measured response/control response × 100) and as percent inhibition of control agonist response [100 − (measured response/control response × 100)] obtained in the presence of the eckol.

[2] = biological target: T2, V1A (h) Vasopressin/Oxytocin (Homo sapiens, UniProt P37288); assay: Cell-based functional GPCR assay, agonist effect; settings: read-out: % of Control Agonist Response
T2 sequence (P37288 whole entry): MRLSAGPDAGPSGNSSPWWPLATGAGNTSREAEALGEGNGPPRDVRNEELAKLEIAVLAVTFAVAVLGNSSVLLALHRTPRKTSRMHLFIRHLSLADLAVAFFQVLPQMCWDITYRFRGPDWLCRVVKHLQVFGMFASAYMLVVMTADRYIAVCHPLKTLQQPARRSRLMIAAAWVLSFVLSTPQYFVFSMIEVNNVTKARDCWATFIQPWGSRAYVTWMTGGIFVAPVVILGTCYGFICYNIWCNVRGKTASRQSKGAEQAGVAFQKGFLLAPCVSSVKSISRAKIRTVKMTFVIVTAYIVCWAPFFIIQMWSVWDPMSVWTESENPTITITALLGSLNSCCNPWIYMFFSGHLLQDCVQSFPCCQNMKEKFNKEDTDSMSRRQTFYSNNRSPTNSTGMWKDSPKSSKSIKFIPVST
Procedure: as §1, §2, §3

5-HT1A (h) Serotonin [3] = biological target: T3, 5-HT1A (h) Serotonin (Homo sapiens, UniProt P08908); assay: Cell-based functional GPCR assay, agonist effect; settings: read-out: % of Control Agonist Response
T3 sequence (P08908 1-422): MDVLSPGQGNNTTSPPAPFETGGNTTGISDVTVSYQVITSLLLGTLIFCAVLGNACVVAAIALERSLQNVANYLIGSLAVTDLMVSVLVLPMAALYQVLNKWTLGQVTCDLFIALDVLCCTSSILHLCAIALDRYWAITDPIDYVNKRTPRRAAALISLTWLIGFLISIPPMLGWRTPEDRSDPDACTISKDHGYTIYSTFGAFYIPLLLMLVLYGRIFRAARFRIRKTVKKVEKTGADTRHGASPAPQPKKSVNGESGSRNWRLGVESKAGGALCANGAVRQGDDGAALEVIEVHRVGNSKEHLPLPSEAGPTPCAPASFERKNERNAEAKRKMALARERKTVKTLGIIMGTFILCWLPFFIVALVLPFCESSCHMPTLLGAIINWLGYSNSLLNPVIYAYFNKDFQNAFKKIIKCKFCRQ
Procedure: as §1, §2, §3

[4] = biological target: T4, M5 (h) Acetylcholine (muscarinic) (Homo sapiens, UniProt P08912); assay: Cell-based functional GPCR assay, agonist effect; settings: read-out: % of Control Agonist Response
T4 sequence (P08912 1-532): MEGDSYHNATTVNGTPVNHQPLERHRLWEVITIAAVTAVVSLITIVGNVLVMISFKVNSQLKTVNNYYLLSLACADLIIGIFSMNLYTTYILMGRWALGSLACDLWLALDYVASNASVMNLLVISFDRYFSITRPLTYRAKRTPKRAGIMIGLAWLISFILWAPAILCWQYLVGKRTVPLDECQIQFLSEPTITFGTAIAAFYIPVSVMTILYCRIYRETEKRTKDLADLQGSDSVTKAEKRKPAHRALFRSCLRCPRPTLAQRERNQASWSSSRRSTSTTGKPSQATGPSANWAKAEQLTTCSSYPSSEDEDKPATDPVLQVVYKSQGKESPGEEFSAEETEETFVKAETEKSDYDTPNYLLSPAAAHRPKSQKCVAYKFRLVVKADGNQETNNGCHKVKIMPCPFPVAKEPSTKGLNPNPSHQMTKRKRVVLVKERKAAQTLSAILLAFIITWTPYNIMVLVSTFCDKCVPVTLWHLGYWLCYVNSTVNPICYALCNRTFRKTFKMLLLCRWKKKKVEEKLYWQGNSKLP
Procedure: as §1, §2, §3

D3 (h) Dopamine [5] = biological target: T5, D3 (h) Dopamine (Homo sapiens, UniProt P35462); assay: Cell-based functional GPCR assay, agonist effect (cAMP)
T5 sequence (P35462 whole entry): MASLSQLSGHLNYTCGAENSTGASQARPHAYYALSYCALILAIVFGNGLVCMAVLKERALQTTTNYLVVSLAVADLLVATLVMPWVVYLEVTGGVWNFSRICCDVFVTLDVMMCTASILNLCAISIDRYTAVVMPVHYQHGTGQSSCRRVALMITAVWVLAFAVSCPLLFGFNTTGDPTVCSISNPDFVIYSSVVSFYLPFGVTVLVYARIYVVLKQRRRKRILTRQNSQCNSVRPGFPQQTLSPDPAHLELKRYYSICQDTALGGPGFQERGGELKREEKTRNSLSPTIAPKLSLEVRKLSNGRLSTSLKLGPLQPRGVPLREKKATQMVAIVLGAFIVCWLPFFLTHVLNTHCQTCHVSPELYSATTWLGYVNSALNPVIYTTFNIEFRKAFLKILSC
Procedure: as §1
(§4) . Following incubation, cells were lysed and a fluorescence acceptor (D2-labeled cAMP) and fluorescence donor (anti-cAMP antibody with europium cryptate) were added. After 60 min at room temperature, fluorescence transfer was measured at λex = 337 nm and λem = 620 and 665 nm using a microplate reader (Envison, Perkin Elmer, Waltham, MA, USA). Cyclic AMP concentration was determined by dividing the signal measured at 665 nm by that measured at 620 nm (ratio). […].
as §3

D1 (h) Dopamine [6] = biological target: T6, D1 (h) Dopamine (Homo sapiens, UniProt P21728); assay: as above; settings: read-out: % of Control Agonist Response
T6 sequence (P21728 whole entry): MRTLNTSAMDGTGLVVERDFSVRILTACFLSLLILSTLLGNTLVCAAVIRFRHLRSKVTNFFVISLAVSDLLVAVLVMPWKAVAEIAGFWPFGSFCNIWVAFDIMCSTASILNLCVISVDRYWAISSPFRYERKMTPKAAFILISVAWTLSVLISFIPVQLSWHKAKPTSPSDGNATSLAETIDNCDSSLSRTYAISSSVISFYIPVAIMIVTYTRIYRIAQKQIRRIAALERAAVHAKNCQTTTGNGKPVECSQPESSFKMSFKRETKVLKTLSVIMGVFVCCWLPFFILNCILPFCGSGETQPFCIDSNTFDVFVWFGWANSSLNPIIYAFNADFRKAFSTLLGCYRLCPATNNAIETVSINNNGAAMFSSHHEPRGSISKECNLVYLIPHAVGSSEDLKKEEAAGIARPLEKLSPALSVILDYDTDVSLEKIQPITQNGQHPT
Procedure: as §1, §4, §3

D4 (h) Dopamine [7] = biological target: T7, D4 (h) Dopamine (Homo sapiens, UniProt P21917); assay: as above
T7 sequence (P21917 1-419): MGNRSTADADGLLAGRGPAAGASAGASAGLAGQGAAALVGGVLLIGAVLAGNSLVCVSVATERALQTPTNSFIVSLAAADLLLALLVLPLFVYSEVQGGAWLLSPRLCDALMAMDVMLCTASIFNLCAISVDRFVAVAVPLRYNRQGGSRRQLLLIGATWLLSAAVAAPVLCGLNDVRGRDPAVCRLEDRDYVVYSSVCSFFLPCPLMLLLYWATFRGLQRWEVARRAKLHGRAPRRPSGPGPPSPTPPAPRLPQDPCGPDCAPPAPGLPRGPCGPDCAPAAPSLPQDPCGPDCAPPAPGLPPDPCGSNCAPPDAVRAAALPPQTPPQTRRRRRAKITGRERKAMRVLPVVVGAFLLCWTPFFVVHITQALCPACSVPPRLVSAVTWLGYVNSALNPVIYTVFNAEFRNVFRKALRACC
Procedure: as §1, §4, §3

NK1 (h) Tachykinin [8] = biological target: T1, NK1 (h) Tachykinin; assay: Cell-based functional GPCR assay, antagonist effect; settings: read-out: % Inhibition of Control Agonist Response
Procedure: as §1, §2, §3

[9] = biological target: T2, V1A (h) Vasopressin/Oxytocin; assay: as above; settings: read-out: % Inhibition of Control Agonist Response
Procedure: as §1, §2, §3

5-HT1A (h) Serotonin [10] = biological target: T3, 5-HT1A (h) Serotonin; assay: as above; settings: read-out: % Inhibition of Control Agonist Response
Procedure: as §1, §2, §3

[11] = biological target: T4, M5 (h) Acetylcholine (muscarinic); assay: as above; settings: read-out: % Inhibition of Control Agonist Response
Procedure: as §1, §2, §3

D3 (h) Dopamine [12] = biological target: T5, D3 (h) Dopamine; assay: Cell-based functional GPCR assay, antagonist effect (cAMP); settings: read-out: % Inhibition of Control Agonist Response
Procedure: as §1, §4, §3

D1 (h) Dopamine [13] = biological target: T6, D1 (h) Dopamine; assay: as above; settings: read-out: % Inhibition of Control Agonist Response
Procedure: as §1, §4, §3

D4 (h) Dopamine [14] = biological target: T7, D4 (h) Dopamine; assay: as above; settings: read-out: % Inhibition of Control Agonist Response
Procedure: as §1, §4, §3

NK1 (h) Tachykinin [15] = biological target: T1, NK1 (h) Tachykinin; set-up: method as in Eurofins Panlab; settings: as reported by Eurofins Panlab, ref Eurofins Panlab, read-out: Reference Antagonists of Respective Target Receptors IC50; cited from earlier work
[16] = 25 μM, read-out: % of Control Agonist Response
[17] = 50 μM, read-out: % of Control Agonist Response
[18] = read-out: EC50 (concentration producing a half-maximal agonist response)

T1 sequence (P25103 whole entry): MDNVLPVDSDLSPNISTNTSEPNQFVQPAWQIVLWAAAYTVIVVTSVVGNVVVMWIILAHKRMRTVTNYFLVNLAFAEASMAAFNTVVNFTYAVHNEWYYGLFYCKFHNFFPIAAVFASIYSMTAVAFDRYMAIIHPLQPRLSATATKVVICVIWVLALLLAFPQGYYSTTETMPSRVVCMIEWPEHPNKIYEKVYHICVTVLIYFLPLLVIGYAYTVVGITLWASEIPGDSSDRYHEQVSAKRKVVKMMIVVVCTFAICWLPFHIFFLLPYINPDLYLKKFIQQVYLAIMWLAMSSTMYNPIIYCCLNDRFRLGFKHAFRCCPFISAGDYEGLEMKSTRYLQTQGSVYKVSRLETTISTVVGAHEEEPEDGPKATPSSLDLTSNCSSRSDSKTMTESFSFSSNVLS

- activity at 25 µM (NK1 (h) Tachykinin [1]; 25 μM): -2.32 ± 0.26%
- activity at 50 µM (NK1 (h) Tachykinin [1]; 50 μM): -2.99 ± 0.21%
- activity at 25 µM ([2]; 25 μM): -8.91 ± 3.2%
- activity at 50 µM ([2]; 50 μM): -12.5 ± 0.51%
- activity at 25 µM (5-HT1A (h) Serotonin [3]; 25 μM): -1.78 ± 0.45%
- activity at 50 µM (5-HT1A (h) Serotonin [3]; 50 μM): -3.04 ± 1.23%
- activity at 25 µM ([4]; 25 μM): 0.38 ± 0.1%
- activity at 50 µM ([4]; 50 μM): 0.39 ± 0.46%
- activity at 25 µM (D3 (h) Dopamine [5]; [16]): 10.6 ± 4.16%
- activity at 50 µM (D3 (h) Dopamine [5]; [17]): 53.1 ± 6.67%
- EC50 (D3 (h) Dopamine [5]; [18]): 48.6 ± 3.21 µM
- activity at 25 µM (D1 (h) Dopamine [6]; 25 μM): -0.58 ± 2.46%
- activity at 50 µM (D1 (h) Dopamine [6]; 50 μM): -2.77 ± 1.27%
- activity at 25 µM (D4 (h) Dopamine [7]; [16]): 36.5 ± 10.9%
- activity at 50 µM (D4 (h) Dopamine [7]; [17]): 54.7 ± 7.05%
- EC50 (D4 (h) Dopamine [7]; [18]): 42.6 ± 2.54 µM
- inhibition at 25 µM (NK1 (h) Tachykinin [8]; 25 μM): -11.3 ± 6.37%
- inhibition at 50 µM (NK1 (h) Tachykinin [8]; 50 μM): -4.32 ± 3.33%
- inhibition at 25 µM ([9]; 25 μM): -13.5 ± 6.93%
- inhibition at 50 µM ([9]; 50 μM): -4.26 ± 11.1%
- inhibition at 25 µM (5-HT1A (h) Serotonin [10]; 25 μM): 6.17 ± 10.3%
- inhibition at 50 µM (5-HT1A (h) Serotonin [10]; 50 μM): 3.49 ± 4.33%
- inhibition at 25 µM ([11]; 25 μM): 1 ± 0.4%
- inhibition at 50 µM ([11]; 50 μM): -4.8 ± 2.25%
- inhibition at 25 µM (D3 (h) Dopamine [12]; 25 μM): -9 ± 6.98%
- inhibition at 50 µM (D3 (h) Dopamine [12]; 50 μM): -15.1 ± 2.51%
- inhibition at 25 µM (D1 (h) Dopamine [13]; 25 μM): 11.6 ± 2.15%
- inhibition at 50 µM (D1 (h) Dopamine [13]; 50 μM): 1.89 ± 1.62%
- inhibition at 25 µM (D4 (h) Dopamine [14]; 25 μM): 1.33 ± 1.7%
- inhibition at 50 µM (D4 (h) Dopamine [14]; 50 μM): -3.33 ± 4.7%
Compound: Oc1cc(O)cc(Oc2c(O)cc(O)c3c2Oc2c(O)cc(O)cc2O3)c1 [Eckol, eckol]

Compound: FC(F)(F)c1cc(CO[C@H]2CCCN[C@H]2c2ccccc2)cc(C(F)(F)F)c1 [L 733,060]
- IC50 (NK1 (h) Tachykinin [15]): 0.00021 µM
